ChEMBL document CHEMBL5236571, “Dynamic Covalent Template-Guided Screen for Nucleic Acid-Targeting Agents” (J Med Chem, 2022)
Active and inactive are the calls of the source. The calls are words filed in the database; no cut-off is given here.

Tests used:
r(CUG) repeat expansion [1] = test: Inhibition of d(CTG.CAG)90 transcription (unknown origin) assessed as inhibition of r(CUG)90 formation at 10 uM incubated for 3.5 hrs measured after 1.5 hrs in presence of T7 RNA polymerase by SDS-PAGE analysis relative to control; format: nucleic-acid assay; conditions: Homo sapiens, time 5.0 hrs
r(CUG) repeat expansion [2] = test: Inhibition of d(CTG.CAG)90 transcription (unknown origin) assessed as inhibition of r(CUG)90 formation incubated for 3.5 hrs measured after 1.5 hrs in presence of T7 RNA polymerase by SDS-PAGE analysis; format: nucleic-acid assay, Homo sapiens
r(CUG) repeat expansion [3] = test: Inhibition of d(CTG.CAG)90 transcription (unknown origin) assessed as inhibition of r(CUG)90 formation at 60 uM incubated for 3.5 hrs measured after 1.5 hrs in presence of T7 RNA polymerase by SDS-PAGE analysis; format: nucleic-acid assay; conditions: Homo sapiens, time 5.0 hrs

Row | inhibition (r(CUG) repeat expansion [1]) | IC50 (r(CUG) repeat expansion [2]) | inhibition (r(CUG) repeat expansion [3]) | Compound
1 | 19.9% | 44 µM |  | COc1ccc2nc3cc(Cl)ccc3c(NC/C=N/CCCCNc3nc(N)nc(NCCCC/N=C/c4ccc(CNc5nc(N)nc(N)n5)cc4)n3)c2c1
2 | 23.2% | 36.2 µM |  | COc1ccc2nc3cc(Cl)ccc3c(NC/C=N/CCCCNC(=O)c3cccc4c(NCCCCNc5nc(N)nc(N)n5)c5ccccc5nc34)c2c1

More lines, now with the values behind:

Row | Compound | inhibition (r(CUG) repeat expansion [1]) | IC50 (r(CUG) repeat expansion [2]) | inhibition (r(CUG) repeat expansion [3])
3 | N=C(NCCCCNc1nc(N)nc(NCc2ccc(/C=N/c3ccc(CNc4nc(N)nc(NCc5ccc(N)cc5)n4)cc3)cc2)n1)c1ccc(C(=N)NCCCCNc2nc(N)nc(NCc3ccc(CO)cc3)n2)cc1 | 34.8% | 25.9 µM | Active
4 | N=C(NCc1ccc(N)cc1)c1ccc(C(=N)NCc2ccc(/N=C/c3ccc(/C=N/CCCCNc4nc(N)nc(NCCCCN)n4)cc3)cc2)cc1 | 21.3% | > 60 µM | 
5 | N=C(NCCCCNc1nc(N)nc(NCc2ccc(/C=N/CCCCn3cnc4c(N)ncnc43)cc2)n1)c1ccc(C(=N)NCCCCNc2nc(N)nc(NCc3ccc(/C=N/c4ccc(CNC(=N)c5ccc(C(=N)NCc6ccc(N)cc6)cc5)cc4)cc3)n2)cc1 | 13.9% | 34.2 µM | 
